Results from ChEMBL document CHEMBL5257140, “Novel Imidazotriazine Derivatives as IL-17 Modulators for Treating Inflammatory and Autoimmune Disorders” (ACS Med Chem Lett, 2023).

test: Inhibition of IL-6 release in IL-17A/TNFalpha-stimulated HDF cells preincubated with IL-17A and TNFalpha for 5 hrs followed by […] to assay plate and measured after 18 to 20 hrs by europium cryptate and Alexa 665 reagent based FRET assay; type: functional, cell-based; conditions: Homo sapiens, NHDF

| SMILES | IC50 [nM] |
| --- | --- |
| Cc1nonc1C(=O)N[C@H](c1cn2ncc([C@@H]3COCCN3C(=O)[C@@H]3CCC(F)(F)CO3)nc2n1)C1CCC(F)(F)CC1 | 6.31 |
| Cc1nonc1C(=O)N[C@H](c1cn2ncc([C@@H]3C[C@](C)(O)CCN3C(=O)[C@@H]3CCC(F)(F)CO3)nc2n1)C1CCC(F)(F)CC1 | 3.98 |
| Cc1nonc1C(=O)N[C@H](c1cn2ncc([C@H]3C[C@H](O)CCN3C(=O)[C@@H]3CCC(F)(F)CO3)nc2n1)C1CCC(F)(F)CC1 | 3.98 |
| Cc1nonc1C(=O)N[C@H](c1cn2ncc([C@@H]3C[C@@](O)(C(F)(F)F)CCN3C(=O)[C@@H]3CCC(F)(F)CO3)nc2n1)C1CCC(F)(F)CC1 | 2.51 |

Continued by falling IC50, values first:

| IC50 [nM] | SMILES |
| --- | --- |
| 5.01 | Cc1nonc1C(=O)N[C@H](c1cn2ncc([C@H]3C[C@](C)(O)CCN3C(=O)[C@@H]3CCC(F)(F)CO3)nc2n1)C1CCC(F)(F)CC1 |
| 3.98 | Cc1nonc1C(=O)N[C@H](c1cn2ncc([C@@H]3COCCN3C(=O)C3CCC(F)(F)CO3)nc2n1)C(C1CC1)C1CC1 (stereo partly specified) |
